From patent publication US20030069295A1, “Use of histamine H3 receptor inverse agonists for the control of appetite and treatment of obesity” (Gliatech, Inc., priority 2001, published 2003)
pKi: −log10 of the molar value. Like-named read-outs stand apart in the source and are kept apart here. Marks after values point to notes of the source that are not given here. Each block holds one compound with its values, some of them ahead of it.

Key:
H3 receptor = biological target: T1, H3 receptor (Rattus norvegicus, UniProt Q9QYN8); assay: Ex vivo binding: H3 receptor occupancy in the brain following intraperitoneal administration
T1 construct: ½-maximal H3 receptor occupancy in the brain following intraperitoneal administration; from tissue; host or cells: brain of dosed animals
Excerpt: (§1) The percent reduction in food intake by rats two hours after intraperitoneal administration of each compound is shown in Table 5. […] In Table 5, * indicates a significant decrease in food intake compared to the vehicle-treated rats (t-test, p<0.05). The ex vivo binding values in Table 5 represent the drug dose required to obtain ½-maximal H3 receptor occupancy in the brain following intraperitoneal administration. The dose values shown in Table 5 represent the dosage of drug utilized during the food intake studies. In all cases, the tested dose exceeded the amount needed to obtain ½-maximal H3 receptor occupancy in the brain.

Histamine H3 receptor = biological target: T2, Histamine H3 receptor (Rattus norvegicus, UniProt Q9QYN8); assay: Histamine H3 receptor binding analysis, [3H]-Nα-methylhistamine competition in rat cerebral cortical membranes, with and without GTPγS; conditions: for Ki Ratio (−/+): Ki without GTPγS / Ki with GTPγS; for remaining activity at 10 µM: read-out: percent of [3H]-Nα-methylhistamine bound (mean), 10000 nM of compound; for binding to GTPγS-treated cortical membrane preparation compared with non-treated preparation: result in words; for remaining activity at 30 pM: 0.03 nM of compound; for remaining activity at 0.0001 µM: 0.1 nM of compound; for remaining activity at 0.3 µM: 300 nM of compound
T2 construct: The cerebral cortical tissues were harvested and frozen on dry ice; from tissue; host or cells: cerebral cortex membranes of male Sprague-Dawley rats

Sprague-Dawley rats = assay: Food intake study in Sprague-Dawley rats; format: in vivo, rat; conditions: for effect on food consumption by rats: two hours after intraperitoneal administration; for cumulative food intake, mean (g) ± sem: 10 mg/kg i.p., rats
Protocol: The compounds summarized in Table 3 were examined for their ability to suppress food consumption by adult Sprague-Dawley rats. Male Sprague Dawley rats were purchased from Harlan Laboratories of Indianapolis, Ind. Rats were housed one per cage and maintained on a 12 hour light/dark schedule (lights-out at 12:30 p.m.) with ad libitum access to powdered Teklad Mouse/Rat Diet 7012 (available from Harlan Laboratories of Indianapolis, Ind.) and water. Rats were acclimated to laboratory conditions and food for 1 to 2 weeks prior to initiating food intake studies. On the day of experiments, test compounds were solubilized or suspended in vehicle/carrier and administered to rats (i.p. or p.o.) 30 to 60 minutes prior to the onset of the dark cycle. Food intake was determined at 1, 2, 4, and 24 hours following the onset of the dark cycle. Alternatively, rats were fasted (water provided) for 24 hours prior to evaluating the effects of compounds on food intake. For these studies, compounds or vehicle/carrier were administered and rats were placed in standard small animal metabolism chambers with ad ibitum access to powdered Teklad Mouse/Rat Diet 7012 and water. Food intake was determined at 2 and 4 hours following the onset of feeding.
Data is cumulative food intake in grams, mean±sem. In the table, * indicates a significant decrease in food intake compared to the vehicle-treated rats (t-test, p<0.05).
as §1

[1] = GTPγS-treated receptor preparation (G-protein uncoupled), read-out: Ki (+) GTPγS
[2] = untreated receptor preparation (mixture of coupled and uncoupled H3 receptors), read-out: Ki (−) GTPγS
[3] = Tris-GTPγS, read-out: percent of [3H]-Nα-methylhistamine bound (mean)
[4] = Tris, read-out: percent of [3H]-Nα-methylhistamine bound (mean)

T2 sequence (Q9QYN8 whole entry): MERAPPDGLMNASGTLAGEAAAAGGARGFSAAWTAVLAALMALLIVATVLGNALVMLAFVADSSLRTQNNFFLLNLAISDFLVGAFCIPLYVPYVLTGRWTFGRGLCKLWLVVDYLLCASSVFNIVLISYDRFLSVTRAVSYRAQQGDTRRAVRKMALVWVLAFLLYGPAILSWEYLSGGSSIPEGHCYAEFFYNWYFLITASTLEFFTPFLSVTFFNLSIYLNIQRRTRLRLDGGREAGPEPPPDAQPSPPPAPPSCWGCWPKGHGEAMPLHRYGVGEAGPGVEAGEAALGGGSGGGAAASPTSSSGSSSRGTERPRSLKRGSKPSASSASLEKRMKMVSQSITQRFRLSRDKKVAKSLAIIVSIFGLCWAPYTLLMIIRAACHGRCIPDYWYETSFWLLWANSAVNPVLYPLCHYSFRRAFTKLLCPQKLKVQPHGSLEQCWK
T1 sequence (Q9QYN8 whole entry): as above

Compound: O=C(N[C@@H]1C[C@H]1c1c[nH]cn1)OCCC1CCCCC1 [Compound 1, 4-((1R,2R)-trans-2-(O-(2-cyclohexylethyl)carboxamido)cyclopropyl)imidazole]
Ex Vivo Binding (drug dose required to obtain ½-maximal H3 receptor occupancy in the brain) (H3 receptor): 3.1 ± 1.3 mg/kg
pKi (Histamine H3 receptor; [1]): 8.14
Ki Ratio (−/+) (Histamine H3 receptor): 4.1
remaining activity at 0.0003 µM (Histamine H3 receptor; read-out: percent of [3H]-Nα-methylhistamine bound (mean), 0.3 nM of compound, Tris): 108%
remaining activity at 0.0003 µM (Histamine H3 receptor; read-out: percent of [3H]-Nα-methylhistamine bound (mean), 0.3 nM of compound, Tris-GTPγS): 103%
remaining activity at 0.001 µM (Histamine H3 receptor; read-out: percent of [3H]-Nα-methylhistamine bound (mean), 1 nM of compound, Tris): 95.7%
remaining activity at 0.001 µM (Histamine H3 receptor; read-out: percent of [3H]-Nα-methylhistamine bound (mean), 1 nM of compound, Tris-GTPγS): 98.3%
remaining activity at 0.003 µM (Histamine H3 receptor; read-out: percent of [3H]-Nα-methylhistamine bound (mean), 3 nM of compound, Tris): 102%
remaining activity at 0.003 µM (Histamine H3 receptor; read-out: percent of [3H]-Nα-methylhistamine bound (mean), 3 nM of compound, Tris-GTPγS): 93.3%
remaining activity at 0.01 µM (Histamine H3 receptor; read-out: percent of [3H]-Nα-methylhistamine bound (mean), 10 nM of compound, Tris): 102%
remaining activity at 0.01 µM (Histamine H3 receptor; read-out: percent of [3H]-Nα-methylhistamine bound (mean), 10 nM of compound, Tris-GTPγS): 76.4%
remaining activity at 0.03 µM (Histamine H3 receptor; read-out: percent of [3H]-Nα-methylhistamine bound (mean), 30 nM of compound, Tris): 88.4%
remaining activity at 0.03 µM (Histamine H3 receptor; read-out: percent of [3H]-Nα-methylhistamine bound (mean), 30 nM of compound, Tris-GTPγS): 42.6%
remaining activity at 0.1 µM (Histamine H3 receptor; read-out: percent of [3H]-Nα-methylhistamine bound (mean), 100 nM of compound, Tris): 67.9%
remaining activity at 0.1 µM (Histamine H3 receptor; read-out: percent of [3H]-Nα-methylhistamine bound (mean), 100 nM of compound, Tris-GTPγS): 23.8%
remaining activity at 1 µM (Histamine H3 receptor; read-out: percent of [3H]-Nα-methylhistamine bound (mean), 1000 nM of compound, Tris): 12.6%
remaining activity at 1 µM (Histamine H3 receptor; read-out: percent of [3H]-Nα-methylhistamine bound (mean), 1000 nM of compound, Tris-GTPγS): 4%
remaining activity at 10 µM (Histamine H3 receptor; Tris): -1.6%
remaining activity at 10 µM (Histamine H3 receptor; Tris-GTPγS): 1.3%
binding to GTPγS-treated cortical membrane preparation compared with non-treated preparation (Histamine H3 receptor): higher apparent affinity
pKi (Histamine H3 receptor; [2]): 7.53

Compound: C(=C/CCC1CCCCC1)/CCc1c[nH]cn1 [Compound 2, (3Z)-4-(6-cyclohexylhex-3-en-1-yl)imidazole]
effect on food consumption by rats (Sprague-Dawley rats; result in words): no measurable effect
Ex Vivo Binding (drug dose required to obtain ½-maximal H3 receptor occupancy in the brain) (H3 receptor): 0.92 ± 0.01 mg/kg
remaining activity at 30 pM (Histamine H3 receptor; [3]): 98.3%
remaining activity at 30 pM (Histamine H3 receptor; [4]): 98.5%
remaining activity at 0.0001 µM (Histamine H3 receptor; [3]): 107%
remaining activity at 0.0001 µM (Histamine H3 receptor; [4]): 96.7%
remaining activity at 0.0003 µM (Histamine H3 receptor; 0.3 nM of compound, Tris-GTPγS, read-out: percent of [3H]-Nα-methylhistamine bound (mean)): 103%
remaining activity at 0.0003 µM (Histamine H3 receptor; 0.3 nM of compound, Tris, read-out: percent of [3H]-Nα-methylhistamine bound (mean)): 96.7%
remaining activity at 0.001 µM (Histamine H3 receptor; 1 nM of compound, Tris-GTPγS, read-out: percent of [3H]-Nα-methylhistamine bound (mean)): 91.1%
remaining activity at 0.001 µM (Histamine H3 receptor; 1 nM of compound, Tris, read-out: percent of [3H]-Nα-methylhistamine bound (mean)): 99.2%
remaining activity at 0.003 µM (Histamine H3 receptor; 3 nM of compound, Tris-GTPγS, read-out: percent of [3H]-Nα-methylhistamine bound (mean)): 77.4%
remaining activity at 0.003 µM (Histamine H3 receptor; 3 nM of compound, Tris, read-out: percent of [3H]-Nα-methylhistamine bound (mean)): 88.7%
remaining activity at 0.01 µM (Histamine H3 receptor; 10 nM of compound, Tris-GTPγS, read-out: percent of [3H]-Nα-methylhistamine bound (mean)): 54.8%
remaining activity at 0.01 µM (Histamine H3 receptor; 10 nM of compound, Tris, read-out: percent of [3H]-Nα-methylhistamine bound (mean)): 60.1%
remaining activity at 0.03 µM (Histamine H3 receptor; 30 nM of compound, Tris-GTPγS, read-out: percent of [3H]-Nα-methylhistamine bound (mean)): 26.2%
remaining activity at 0.03 µM (Histamine H3 receptor; 30 nM of compound, Tris, read-out: percent of [3H]-Nα-methylhistamine bound (mean)): 32.6%
remaining activity at 0.1 µM (Histamine H3 receptor; 100 nM of compound, Tris-GTPγS, read-out: percent of [3H]-Nα-methylhistamine bound (mean)): 10.7%
remaining activity at 0.1 µM (Histamine H3 receptor; 100 nM of compound, Tris, read-out: percent of [3H]-Nα-methylhistamine bound (mean)): 13.5%
remaining activity at 0.3 µM (Histamine H3 receptor; [3]): 4.4%
remaining activity at 0.3 µM (Histamine H3 receptor; [4]): 4.5%
remaining activity at 1 µM (Histamine H3 receptor; 1000 nM of compound, Tris-GTPγS, read-out: percent of [3H]-Nα-methylhistamine bound (mean)): 3.4%
remaining activity at 1 µM (Histamine H3 receptor; 1000 nM of compound, Tris, read-out: percent of [3H]-Nα-methylhistamine bound (mean)): 0.4%
pKi (Histamine H3 receptor; [1]): 8.44
Ki Ratio (−/+) (Histamine H3 receptor): 1.3
binding to GTPγS-treated cortical membrane preparation compared with non-treated preparation (Histamine H3 receptor): relatively little difference in binding
pKi (Histamine H3 receptor; [2]): 8.34

Compound: O=C(N[C@@H]1C[C@H]1c1c[nH]cn1)OCC1CCCCC1 [Compound 3, 4-((1R,2R)-trans-2-(O-(2-cyclohexylmethyl)carboxamido)cyclopropyl)imidazole]
cumulative food intake, mean (g) ± sem (Sprague-Dawley rats; 1 hr following onset of dark cycle): 1.8 ± 0.3* g
cumulative food intake, mean (g) ± sem (Sprague-Dawley rats; 2 hr following onset of dark cycle): 4.4 ± 0.2* g
cumulative food intake, mean (g) ± sem (Sprague-Dawley rats; 4 hr following onset of dark cycle): 7.1 ± 0.5* g
cumulative food intake, mean (g) ± sem (Sprague-Dawley rats; 24 hr following onset of dark cycle): 17.4 ± 1.2* g
effect of a single administration on food consumption (Sprague-Dawley rats; single administration, up to 24 hours, result in words): significant reduction of food consumption
Ex Vivo Binding (drug dose required to obtain ½-maximal H3 receptor occupancy in the brain) (H3 receptor): 2.6 ± 1.3 mg/kg
pKi (Histamine H3 receptor; Ki (+) GTPγS, GTPγS-treated receptor preparation (G-protein uncoupled)): 8.38
pKi (Histamine H3 receptor; Ki (−) GTPγS, untreated receptor preparation (mixture of coupled and uncoupled H3 receptors)): 8.00
Ki Ratio (−/+) (Histamine H3 receptor): 2.4

Compound: CC(C)(C)CCOC(=O)N[C@@H]1C[C@H]1c1c[nH]cn1 [Compound 9, 4-((1R,2R)-trans-2-(O-(3,3-dimethyl-but-1-yl)carboxamido)cyclopropyl)imidazole]
effect on food consumption by rats (Sprague-Dawley rats; result in words): no measurable effect
Ex Vivo Binding (drug dose required to obtain ½-maximal H3 receptor occupancy in the brain) (H3 receptor): 3.7 ± 0.4 mg/kg
pKi (Histamine H3 receptor; [1]): 8.35
Ki Ratio (−/+) (Histamine H3 receptor): 1.6
pKi (Histamine H3 receptor; [2]): 8.14

Further lines, with some results ahead:

Ex Vivo Binding (drug dose required to obtain ½-maximal H3 receptor occupancy in the brain) (H3 receptor): 5.6 ± 0.12 mg/kg
pKi (Histamine H3 receptor; [1]): 8.11
Ki Ratio (−/+) (Histamine H3 receptor): 2.3
pKi (Histamine H3 receptor; [2]): 7.74
Compound: Fc1ccc(C(OCCCc2c[nH]cn2)c2ccc(F)cc2)cc1 [Compound 8, 3-(1H-imidazol-4-yl)propyl-di(p-fluorophenyl)-methyl ether]

Ex Vivo Binding (drug dose required to obtain ½-maximal H3 receptor occupancy in the brain) (H3 receptor): 8.0 ± 1.3 mg/kg
Compound: O=C(CCCCC1CCCCC1)N1CCC(c2c[nH]cn2)CC1 [Compound 5, 4-(N-(5-cyclohexylpentan-1-one-1-yl)piperidin-4-yl)imidazole]

Ex Vivo Binding (drug dose required to obtain ½-maximal H3 receptor occupancy in the brain) (H3 receptor): 0.08 ± 0.03 mg/kg
pKi (Histamine H3 receptor; [1]): 9.62
Ki Ratio (−/+) (Histamine H3 receptor): 1.7
pKi (Histamine H3 receptor; [2]): 9.39
Compound: CC(C)(C)CCC#C[C@@H]1C[C@H]1c1c[nH]cn1 [Compound 6, (1R,2R)-trans-4-(2-(5,5-dimethylhex-1-ynyl)cyclopropyl) imidazole]
effect on food consumption by rats (Sprague-Dawley rats; result in words): no measurable effect

Ex Vivo Binding (drug dose required to obtain ½-maximal H3 receptor occupancy in the brain) (H3 receptor): 2.9 ± 1.3 mg/kg
pKi (Histamine H3 receptor; [1]): 8.64
Ki Ratio (−/+) (Histamine H3 receptor): 1.5
pKi (Histamine H3 receptor; [2]): 8.47
Compound: O=C(N[C@@H]1C[C@H]1c1c[nH]cn1)OCc1c(Cl)cccc1Cl [Compound 7, 4-((1R,2R)-trans-2-(O-(2,6-dichlorophenylmethyl)carboxamido)cyclopropyl)imidazole]
effect on food consumption by rats (Sprague-Dawley rats; result in words): no measurable effect

Ex Vivo Binding (drug dose required to obtain ½-maximal H3 receptor occupancy in the brain) (H3 receptor): ˜15 mg/kg
pKi (Histamine H3 receptor; [1]): 8.72
Ki Ratio (−/+) (Histamine H3 receptor): 6.0
pKi (Histamine H3 receptor; [2]): 7.95
Compound: N[C@H](/C=C\CCc1c[nH]cn1)CC1CCCCC1 [Compound 4, 4-(((5S)(3Z)-5-amino-6-cyclohexyl)hex-3-en-1-yl)imidazole]
